Experimental findings from patent US11198704B2, “Butane-tetraol-based amphiphiles and uses thereof” (Industry-University Cooperation Foundation Hanyang …, priority 2016, dated 2021) are described below.

Structures are written as SMILES. Entries after “also recorded” stand apart in the source; their conditions may differ.

Data set [1] in a line: Hydrodynamic radius and size distribution of micelles by dynamic light scattering (DLS). It counts as physicochemical. The conditions noted are these: detergent 1.0% by weight. The procedure: A method of measuring the radius of the micelles is not particularly limited, but the radius of the micelles may be measured using methods well known in the related art. For example, the radius of the micelles may be measured through a dynamic light scattering (DLS) experiment.
(§1) Specifically, the critical micelle concentration (CMC) was measured using diphenylhexatriene (DPH) as a fluorescent stain, and the hydrodynamic radii (Rh) of the micelles formed by each preparation (1.0% by weight) were measured through a dynamic light scattering (DLS) experiment.

Data set [2] is described as follows: Critical micelle concentration (CMC) using diphenylhexatriene (DPH) fluorescent stain. The format is physicochemical. The conditions noted are these: aqueous solution. The procedure: A method of measuring the CMC is not particularly limited, but the CMC may be measured using methods well known in the related art. For example, the CMC may be measured by a fluorescence staining method using diphenylhexatriene (DPH).
as §1

For data set [3], the target named is T1, human β2 adrenergic receptor (β2AR) (Homo sapiens, UniProt P07550).
T1 construct: made in house
T1 sequence (P07550 whole entry): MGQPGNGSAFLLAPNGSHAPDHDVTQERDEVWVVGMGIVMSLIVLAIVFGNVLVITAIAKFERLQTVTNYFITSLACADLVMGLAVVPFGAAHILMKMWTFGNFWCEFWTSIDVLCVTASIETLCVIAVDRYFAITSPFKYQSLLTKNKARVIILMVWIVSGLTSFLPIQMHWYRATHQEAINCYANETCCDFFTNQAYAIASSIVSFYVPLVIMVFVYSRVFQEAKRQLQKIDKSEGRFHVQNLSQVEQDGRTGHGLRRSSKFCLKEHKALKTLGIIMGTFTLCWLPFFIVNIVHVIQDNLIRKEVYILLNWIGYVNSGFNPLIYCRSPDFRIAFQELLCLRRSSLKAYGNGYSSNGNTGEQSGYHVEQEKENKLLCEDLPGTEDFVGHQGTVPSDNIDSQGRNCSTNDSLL
Description: Structural stability of β2AR, [3H]-dihydroalprenolol ([3H]-DHA) binding. The format is biochemical. The conditions noted are these: BTMs without CHS, DDM with CHS; for initial ligand-binding characteristics of β2AR ([3H]-DHA): CMC+0.2% by weight. The procedure: An experiment for determining the structural stability of a human β2 adrenergic receptor (β2AR) and a G-protein-coupled receptor (GPCR) by BTMs was performed. That is, a receptor purified with DDM was diluted with a buffer solution containing only each of the BTMs without cholesteryl hemisuccinate (CHS) or a buffer solution containing DDM with CHS. The final compound concentration was CMC+0.2% by weight, and the ligand-binding characteristics of the receptor were determined through [^3H]-dihydroalprenolol ([^3H]-DHA) binding.
Specifically, a radioactive ligand binding test was performed using the following method. β2AR was purified with 0.1% DDM (D. M. Rosenbaum et al., Science, 2007, 318, 1266-1273.), and finally concentrated to approximately 10 mg/mL (approximately 200 μM). A master binding mixture containing 10 nM [^3H]-dihydroalprenolol (DHA) supplemented with 0.5 mg/mL BSA in each 0.2% amphiphilic compound (DDM or BTMs) was prepared using the β2AR purified with DDM. The ligand-binding characteristics of the receptor purified with the amphiphilic compound at 0.2 pmol was monitored at regular intervals while the receptor was incubated at room temperature for 3 days. The ligand-binding characteristics of the receptor were determined using a water-soluble radioactive ligand binding assay as will be described below. The receptor purified with DDM or each of the BTMs was incubated with 10 nM [^3H]-DHA at room temperature for 30 minutes. The mixture was loaded on a G-50 column, and flow-through fractions were collected using 1 mL of a binding buffer (20 mM HEPES (pH 7.5) supplemented with 0.5 mg/mL BSA and 20×CMC of each amphiphilic compound, 100 mM NaCl). Then, the G-50 column was filled with 15 mL of a scintillation fluid. Receptor-bound [^3H]-DHA was counted using a scintillation counter (Beckman). Non-specific binding of [^3H]-DHA was determined by adding 2 μM of alprenolol (Sigma) in the same binding reaction. The binding affinity of [^3H]-DHA was plotted on a column graph, and each experiment was performed in triplicate.

Data set [4] has as its system uric acid-xanthine/H+ symporter (UapA), UapAG411VΔ1-11 GFP fusion. Description: Thermal stability of UapA solubilized by detergent, fluorescence size exclusion chromatography (FSEC). Details: species or system Aspergillus nidulans. The conditions noted are these: detergent 1.0% by weight; 40° C. for 10 minutes. The procedure: A UapA protein is a uric acid-xanthine/H^+ symporter in Aspergillus nidulans. An experiment for measuring structural stability of a uric acid-xanthine/H^+ symporter (UapA) by BTMs in an aqueous solution was performed. The structural stability of UapA was measured using fluorescence size exclusion chromatography (FSEC).
Specifically, UapAG411VΔ1-11 (hereinafter referred to as ‘UapA’) was expressed as a GFP fusion protein in a Saccharomyces cerevisiae FGY217 strain, and divided into a sample buffer (20 mM Tris (pH 7.5), 150 mM NaCl, 0.03% DDM, and 0.6 mM xanthine). This procedure was performed according to the method disclosed in the article by J. Leung et al. (Mol. Membr. Biol. 2013, 30, 32-42). Membranes containing UapA were re-suspended in PBS (10 mM imidazole pH 8.0, 150 mM NaCl, and 10% glycerol), and a concentration of proteins was measured. […] 100 μL aliquots were removed from the respective tubes, and fluorescence reading on each sample was performed before and after the aliquots were ultracentrifuged at 150,000 g for 10 minutes to remove insoluble matter. Water-soluble fractions remaining under each condition were subjected to fluorescence SEC (FSEC) using a Superose 6 column (GE Healthcare) equilibrated with a buffer containing a proper preparation (DDM or BTM).

Data set [5] concerns the target T2, melibiose permease (MelB) (Salmonella typhimurium, UniProt P30878).
T2 construct: made in house; host or cells: E. coli DW2
The data set can be described thus: MelB extraction and thermostability, SDS-PAGE and Western Blotting of the dissolved protein. The note with it: 55° C., 90 minutes; detergent 1.5% by weight. Here is the method:
The MelB protein was extracted from a membrane using BTM-C11s or DDM, and the amount and structure of the extracted protein were analyzed through SDS-PAGE and Western Blotting. A concentration of the amphiphilic compound used was 1.5% by weight, and the protein was extracted at four temperatures (0, 45, 55, and 65° C.), and incubated at the same temperature for 90 minutes. Thereafter, an amount of the protein remaining dissolved in an aqueous solution was measured to evaluate two types of performance: protein extraction efficiency and stabilization ability of the compound. The amount of the protein extracted and stabilized with each of the amphiphilic molecules is expressed as a relative value (%) of the entire amount of proteins contained in a membrane sample which is not treated with the amphiphilic molecules.
Specifically, Salmonella typhimurium melibiose permease (MelBSt) having a 10-His tag at the C-terminus thereof was expressed in E. coli DW2 cells (AmelB and AlacZY) using a plasmid pK95ΔAHB/WT MelBSt/CH10. Cell growth and membrane preparation were performed according to the method disclosed in the article by A. S. Ethayathulla et al. (Nat. Commun. 2014, 5, 3009). A protein assay was performed using a Micro BCA kit (Thermo Scientific, Rockford, Ill.). An effect of the isomers (A-BTM-C11, B-BTM-C11, and M-BTM-C11) of the BTM-C11s or DDM on the MelBSt stability was evaluated using the protocol disclosed in P. S. Chae et al. (Nat. Methods 2010, 7, 1003-1008). A membrane sample (having a final protein concentration of 10 mg/mL) containing MelBSt was incubated at four temperatures (0, 45, 55, and 65° C.) for 90 minutes in a solubilizing buffer (20 mM sodium phosphate, pH 7.5, 200 mM NaCl, 10% glycerol, and 20 mM melibiose) containing 1.5% (w/v) DDM or the BTM-C11 isomers. To remove insoluble matter, the sample was ultracentrifuged at 355,590 g at 4° C. for 45 minutes using a Beckman Optima™ MAX ultracentrifuge equipped with a TLA-100 rotor. The dissolved fraction was separated by 16% SDS-PAGE, and then immunoblotted with a Penta-His-HRP antibody (Qiagen, Germantown, Md.). The membrane fraction containing 20 μg of untreated proteins was used to represent the entire MelB, and the treated samples were loaded in each well at the same volume. MelBSt was measured by an ImageQuant LAS 4000 Biomolecular imager (GE Health Care Life Sciences) using a SuperSignal West Pico chemiluminescent substrate.

T2 sequence (P30878 whole entry): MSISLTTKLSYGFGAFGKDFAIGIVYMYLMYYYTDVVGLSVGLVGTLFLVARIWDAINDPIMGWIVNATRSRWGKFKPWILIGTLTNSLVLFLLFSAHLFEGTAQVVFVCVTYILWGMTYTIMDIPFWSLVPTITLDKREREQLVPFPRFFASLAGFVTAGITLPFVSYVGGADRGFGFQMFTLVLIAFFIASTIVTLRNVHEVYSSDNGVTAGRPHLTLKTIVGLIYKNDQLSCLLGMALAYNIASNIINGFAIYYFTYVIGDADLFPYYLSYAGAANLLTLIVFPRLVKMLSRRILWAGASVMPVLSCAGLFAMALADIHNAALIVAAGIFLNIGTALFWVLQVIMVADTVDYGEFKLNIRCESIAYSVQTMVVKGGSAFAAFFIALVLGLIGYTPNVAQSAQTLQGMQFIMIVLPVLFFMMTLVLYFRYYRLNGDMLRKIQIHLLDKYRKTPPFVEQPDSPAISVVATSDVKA

On to `CCCCCCCCCCOC[C@H](O[C@@H]1OC(CO)[C@@H](O[C@H]2OC(CO)[C@@H](O)C(O)C2O)C(O)C1O)[C@H](COCCCCCCCCCC)O[C@@H]1OC(CO)[C@@H](O[C@H]2OC(CO)[C@@H](O)C(O)C2O)C(O)C1O` (stereo partly drawn) [A-BTM-C10], for which the “Rh (nm), hydrodynamic radius of micelles” value in data set [1] came out at 3.2 ± 0.07 nm. Moreover, in data set [2], the “CMC” value was ~0.011 mM and the “CMC (% by weight)” value is reported as ~0.0012 % by weight.

Turning to `CCCCCCCCCOC[C@H](O[C@@H]1OC(CO)[C@@H](O[C@H]2OC(CO)[C@@H](O)C(O)C2O)C(O)C1O)[C@@H](COCCCCCCCCC)O[C@@H]1OC(CO)[C@@H](O[C@H]2OC(CO)[C@@H](O)C(O)C2O)C(O)C1O` (stereo partly drawn) [M-BTM-C9], in data set [1], the “Rh (nm), hydrodynamic radius of micelles” value was found to be 3.2 ± 0.05 nm. Also, in data set [2], the “CMC” value was ~0.017 mM and the “CMC (% by weight)” value was ~0.0017 % by weight.

Regarding `CCCCCCCCCCOC[C@@H](O[C@@H]1OC(CO)[C@@H](O[C@H]2OC(CO)[C@@H](O)C(O)C2O)C(O)C1O)[C@@H](COCCCCCCCCCC)O[C@@H]1OC(CO)[C@@H](O[C@H]2OC(CO)[C@@H](O)C(O)C2O)C(O)C1O` (stereo partly drawn) [B-BTM-C10], the “Rh (nm), hydrodynamic radius of micelles” value in data set [1] worked out at 3.1 ± 0.07 nm. In data set [2], the “CMC” value is given as ~0.013 mM and the “CMC (% by weight)” value is ~0.0014 % by weight.

For `CCCCCCCCCCCOC[C@H](O[C@@H]1OC(CO)[C@@H](O[C@H]2OC(CO)[C@@H](O)C(O)C2O)C(O)C1O)[C@H](COCCCCCCCCCCC)O[C@@H]1OC(CO)[C@@H](O[C@H]2OC(CO)[C@@H](O)C(O)C2O)C(O)C1O` (stereo partly drawn) [A-BTM-C11], in data set [1], the “Rh (nm), hydrodynamic radius of micelles” value is 3.5 ± 0.03 nm. Besides, the “initial ligand-binding characteristics of β2AR ([3H]-DHA)” value in data set [3] is listed as “slight decrease in the ligand-binding characteristics”. In addition, in data set [2], the “CMC” value was ~0.007 mM and the “CMC (% by weight)” value is given as ~0.0008 % by weight.

For the compound `CCCCCCCCCCCOC[C@@H](O[C@@H]1OC(CO)[C@@H](O[C@H]2OC(CO)[C@@H](O)C(O)C2O)C(O)C1O)[C@@H](COCCCCCCCCCCC)O[C@@H]1OC(CO)[C@@H](O[C@H]2OC(CO)[C@@H](O)C(O)C2O)C(O)C1O` (stereo partly drawn) [B-BTM-C11], the “Rh (nm), hydrodynamic radius of micelles” value in data set [1] was 3.5 ± 0.08 nm. In data set [2], the “CMC” value is on record as ~0.008 mM and the “CMC (% by weight)” value is reported as ~0.0009 % by weight.

Regarding `CCCCCCCCCOC[C@H](O[C@@H]1OC(CO)[C@@H](O[C@H]2OC(CO)[C@@H](O)C(O)C2O)C(O)C1O)[C@H](COCCCCCCCCC)O[C@@H]1OC(CO)[C@@H](O[C@H]2OC(CO)[C@@H](O)C(O)C2O)C(O)C1O` (stereo partly drawn) [A-BTM-C9], the “Rh (nm), hydrodynamic radius of micelles” value in data set [1] is 2.9 ± 0.04 nm. Further, in data set [2], the “CMC” value is recorded as ~0.021 mM and the “CMC (% by weight)” value is given as ~0.0022 % by weight.

In the case of `CCCCCCCCCCOC[C@H](O[C@@H]1OC(CO)[C@@H](O[C@H]2OC(CO)[C@@H](O)C(O)C2O)C(O)C1O)[C@@H](COCCCCCCCCCC)O[C@@H]1OC(CO)[C@@H](O[C@H]2OC(CO)[C@@H](O)C(O)C2O)C(O)C1O` (stereo partly drawn) [M-BTM-C10], the “Rh (nm), hydrodynamic radius of micelles” value in data set [1] is reported as 3.5 ± 0.07 nm. In addition, in data set [2], the “CMC” value was ~0.008 mM and the “CMC (% by weight)” value is given as ~0.0009 % by weight.

On to `CCCCCCCCCCCOC[C@H](O[C@@H]1OC(CO)[C@@H](O[C@H]2OC(CO)[C@@H](O)C(O)C2O)C(O)C1O)[C@@H](COCCCCCCCCCCC)O[C@@H]1OC(CO)[C@@H](O[C@H]2OC(CO)[C@@H](O)C(O)C2O)C(O)C1O` (stereo partly drawn) [M-BTM-C11], for which the “Rh (nm), hydrodynamic radius of micelles” value in data set [1] is 4.7 ± 0.27 nm. Besides, the “UapA monodisperse peak in FSEC (extraction and structural stability)” value in data set [4] is “significant increase in the recovery of monodisperse peaks; also recorded: most excellent effect”. The “initial ligand-binding characteristics of β2AR ([3H]-DHA)” value in data set [3] was “slight decrease in the ligand-binding characteristics”. Besides, the “remaining ligand-binding ability of β2AR, % of initial” value in data set [3] (after 3 days of incubation at room temperature) was “approximately 70%”. In data set [3] (room temperature, 3 days), the “effect on the long-term stability of the receptor (β2AR)” value was “much more superior effect in maintaining the long-term stability of β2AR, compared to DDM”. Besides, in data set [2], the “CMC” value is recorded as ~0.006 mM and the “CMC (% by weight)” value was ~0.0006 % by weight. Further, the “amount of MelB protein remaining dissolved in aqueous solution” value in data set [5] is “complete solubility”.
